Source: the supplement of paper PMC10627819

What was measured:
[1] = system: B. subtilis 168; assay: fitness (endpoint OD595 vs no drug) (fraction); higher = more growth
Method in brief: (§1)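 Bacterial growth was followed in 384-well plates seeded at OD595 0.01, with 30 µl per well, or 55 µl for S. pneumoniae, in TSB, LB Lennox or CY at 37 °C. OD595 was read every 30 min for 14 h, and each reading had the first reading subtracted as background. Fitness is the background-corrected optical density at entry into stationary phase divided by the robust mean of the no-drug control wells. This ratio is capped at 1.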

[2] = system: S. aureus Newman; assay: as above; conditions: one replicate
Method in brief: as §1

[3] = system: B. subtilis 168; assay: Bliss interaction score (quartile over a dose matrix) (fitness difference); higher = more antagonism (negative = synergy)
Method in brief: (§2)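 Quartiles summarise the Bliss score over technical, biological and donor/recipient replicates, where the score is observed minus expected fitness under a product model. Expected fitness uses single-drug values inferred from combination data. Fitness is OD595 at entry into stationary phase over the plate's robust no-drug mean, capped at 1.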

[4] = system: S. aureus DSM 20231; assay: as above
Method in brief: as §2

[5] = system: S. aureus Newman; assay: as above
Method in brief: as §2

[6] = system: S. pneumoniae D39V; assay: as above
Method in brief: as §2
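Wherever Bliss interaction score (quartile over a dose matrix) is given: first quartile when negative (synergy) and third quartile when positive (antagonism).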

CO/N=C(\C(=O)N[C@@H]1C(=O)N2C(C(=O)O)=C(COC(N)=O)CS[C@H]12)c1ccco1 [Cefuroxime] + CC(C1CCC(C(O1)OC2C(CC(C(C2O)OC3C(C(C(CO3)(C)O)NC)O)N)N)N)NC [Gentamicin]
fitness, main component drawn
Conditions | first compound 0.04875 µg/mL | first compound 0.0975 µg/mL | first compound 0.195 µg/mL
[1], partner 0.0625 µg/mL | 0.708 | 0.675 | 0.587
[1], partner 0.125 µg/mL | – | 0.379 | 0.0507
[1], partner 0.25 µg/mL | 0.0653 | 0.0449 | 0.0518
[2], partner 1 µg/mL | 0.937 | 0.923 | 0.942
[2], partner 2 µg/mL | 0.867 | 0.723 | 0.628
[2], partner 4 µg/mL | 0.0568 | 0.0486 | 0.0654

fitness, [1], one replicate, main component drawn
Conditions | first compound 0.39 µg/mL | first compound 0.78 µg/mL | first compound 1.562 µg/mL | first compound 3.125 µg/mL | first compound 6.25 µg/mL
partner 0.0625 µg/mL | 0.6 | 0.549 | 0.249 | 0.0632 | 0.0658
partner 0.125 µg/mL | 0.202 | 0.142 | 0.0288 | 0.0271 | 0.0297
partner 0.25 µg/mL | 0.152 | 0.0935 | 0.0323 | 0.029 | 0.0215

main component drawn
Conditions | Bliss interaction score
[3] | 0.0914
[4] | -0.313
[5] | -0.165
[6] | -0.0232

CO/N=C(\C(=O)N[C@@H]1C(=O)N2C(C(=O)O)=C(COC(N)=O)CS[C@H]12)c1ccco1 [Cefuroxime] + CCN(CC)CCOC(=O)c1ccc(N)cc1 [Procaine]
fitness
Conditions | first compound 0.04875 µg/mL | first compound 0.0975 µg/mL | first compound 0.195 µg/mL
[1], partner 85.5 µg/mL | 0.756 | 0.685 | 0.527
[1], partner 171 µg/mL | 0.762 | 0.65 | 0.512
[1], partner 342 µg/mL | 0.75 | – | 0.519
[2], partner 85.5 µg/mL | 0.953 | 0.92 | 0.904
[2], partner 171 µg/mL | 0.962 | 0.904 | 0.905
[2], partner 342 µg/mL | 0.947 | 0.907 | 0.902

fitness, [1], one replicate
Conditions | first compound 1.562 µg/mL | first compound 3.125 µg/mL | first compound 6.25 µg/mL
partner 85.5 µg/mL | 0.348 | 0.28 | 0.225
partner 171 µg/mL | 0.288 | 0.256 | 0.153
partner 342 µg/mL | 0.293 | 0.233 | 0.202

Conditions | Bliss interaction score
[3] | 0.0619
[4] | 0.0947
[5] | -0.0324
[6] | -0.0452

CO/N=C(\C(=O)N[C@@H]1C(=O)N2C(C(=O)O)=C(COC(N)=O)CS[C@H]12)c1ccco1 [Cefuroxime] + C[n+]1ccc(-c2cc[n+](C)cc2)cc1 [Paraquat]
fitness
Conditions | first compound 0.04875 µg/mL | first compound 0.0975 µg/mL | first compound 0.195 µg/mL
[1], partner 1.25 µg/mL | 0.705 | 0.633 | 0.539
[1], partner 2.5 µg/mL | 0.682 | 0.625 | 0.522
[1], partner 5 µg/mL | 0.632 | 0.584 | 0.366
[2], partner 1.25 µg/mL | 0.955 | 0.906 | 0.963
[2], partner 2.5 µg/mL | 0.88 | 0.924 | 0.937
[2], partner 5 µg/mL | 0.993 | 0.907 | 0.939

fitness, [1], one replicate
Conditions | first compound 1.562 µg/mL | first compound 3.125 µg/mL | first compound 6.25 µg/mL
partner 1.25 µg/mL | 0.224 | 0.144 | 0.0805
partner 2.5 µg/mL | 0.179 | 0.131 | 0.0628
partner 5 µg/mL | 0.147 | 0.0619 | 0.0182

Conditions | Bliss interaction score
[3] | -0.0801
[4] | 0.0764
[5] | -0.0456
[6] | -0.0322

CO/N=C(\C(=O)N[C@@H]1C(=O)N2C(C(=O)O)=C(COC(C)=O)CS[C@H]12)c1csc(N)n1 [Cefotaxime] + CO/N=C(\C(=O)N[C@@H]1C(=O)N2C(C(=O)O)=C(COC(N)=O)CS[C@H]12)c1ccco1 [Cefuroxime]
fitness, [1], one replicate
Conditions | first compound 0.00775 µg/mL | first compound 0.0155 µg/mL | first compound 0.031 µg/mL | first compound 0.0625 µg/mL | first compound 0.125 µg/mL | first compound 0.25 µg/mL | first compound 0.5 µg/mL | first compound 1 µg/mL | first compound 2 µg/mL
partner 0.04875 µg/mL | – | – | – | 0.421 | 0.41 | 0.354 | 0.0782 | 0.0681 | 0.0589
partner 0.0975 µg/mL | – | – | – | 0.492 | 0.444 | 0.451 | 0.0682 | 0.0388 | 0.0337
partner 0.195 µg/mL | 0.236 | 0.172 | 0.176 | 0.329 | 0.331 | 0.305 | 0.0838 | 0.0517 | 0.0469
partner 0.39 µg/mL | 0.194 | 0.121 | 0.138 | – | – | – | – | – | –
partner 0.78 µg/mL | 0.147 | 0.0786 | 0.0789 | – | – | – | – | – | –
partner 1.562 µg/mL | – | – | – | – | – | – | 0.308 | 0.139 | 0.161
partner 3.125 µg/mL | – | – | – | – | – | – | 0.286 | 0.1 | 0.138
partner 6.25 µg/mL | – | – | – | – | – | – | 0.261 | 0.114 | 0.0944

fitness, [2]
Conditions | first compound 0.078 µg/mL | first compound 0.156 µg/mL | first compound 0.312 µg/mL
partner 0.04875 µg/mL | 0.834 | 0.698 | 0.384
partner 0.0975 µg/mL | 0.798 | 0.574 | 0.295
partner 0.195 µg/mL | 0.84 | 0.596 | 0.237

Conditions | Bliss interaction score
[3] | 0.0852
[4] | 0.107
[5] | -0.0451
[6] | -0.0369

CO/N=C(\C(=O)N[C@@H]1C(=O)N2C(C(=O)O)=C(COC(N)=O)CS[C@H]12)c1ccco1 [Cefuroxime] + CN1C2=CC=CC=C2N=C3C1=CC=CC3=O [Pyocyanin]
fitness
Conditions | first compound 0.04875 µg/mL | first compound 0.0975 µg/mL | first compound 0.195 µg/mL
[1], partner 1.25 µg/mL | – | – | 0.53
[1], partner 2.5 µg/mL | 0.719 | – | 0.513
[1], partner 5 µg/mL | 0.59 | 0.501 | 0.463
[2], partner 1.25 µg/mL | 0.903 | 0.869 | 0.897
[2], partner 2.5 µg/mL | 0.84 | 0.779 | 0.864
[2], partner 5 µg/mL | 0.504 | 0.451 | 0.472

fitness, [1], one replicate
Conditions | first compound 1.562 µg/mL | first compound 3.125 µg/mL | first compound 6.25 µg/mL
partner 1.25 µg/mL | 0.331 | 0.306 | 0.24
partner 2.5 µg/mL | 0.308 | 0.258 | 0.192
partner 5 µg/mL | 0.253 | 0.215 | 0.184

Conditions | Bliss interaction score
[3] | 0.0646
[4] | -0.0629
[5] | -0.0853
[6] | -0.0309
